Measured values published in patent US10047105B2, “Gyrase inhibitors” (Merck Sharp & Dohme Corp., priority 2009, dated 2018).
Converted amounts (≈) assume the structure as drawn.

Columns and labels:
Type in all cases: cell-based
[1] = system: S. aureus ATCC 13709; assay: MIC, antibacterial potency, S. aureus
[2] = system: S. pneumoniae ATCC 51916; assay: MIC, S. pneumoniae
[3] = system: E. coli 8 ATCC 25922; assay: MIC, E. coli 8 (wt); conditions: E. coli 8 (EC8)
[4] = S. pneumoniae (Spn52), in µg/mL

Row | MIC, SA ([1]; S. aureus (SA), in µg/mL) | MIC Spn52 [2, 4] | MIC EC8 [3] [µg/mL] | SMILES | MIC, SA ([1]; S. aureus) [µg/mL] | MIC Spn52 ([2]; S. pneumoniae) [µg/mL]
1 | 32 | >64 | > 64 | CCc1[nH]c2nc(Sc3cnc4cccnc4c3)nc(N3C[C@H](C(=O)NC4CNC4)[C@@H](N)C3)c2c1Cl [701,004] | – | –
2 | 1 | 4 | > 64 | CCc1[nH]c2nc(Oc3cncnc3)nc(N3CC(Cc4cncnc4)C3)c2c1Cl [700,909] | – | –
3 | – | – | – | CCOc1nc(Sc2cc(C(=O)NC3CC3)ccn2)nc2[nH]c(CC)c(Cl)c12 [700,306] | > 64 | > 64
4 | 2 | 8 | – | CCc1[nH]c2nc(Oc3cccc(C#N)c3)nc(C3CC3)c2c1Cl [700,874] | – | –
5 | – | – | – | CCc1[nH]c2nc(Sc3ccc4cc(C(=O)O)cnc4c3)nc(N3CC[C@@H](N)C3)c2c1Cl [700,705] | > 64 | > 64
6 | – | – | – | CCc1[nH]c2nc(Sc3cnc4nccnc4c3)nc(N3CC(NC(=O)CNC4CCOC4=O)C3)c2c1Cl.O=C(O)C(F)(F)F (stereo not drawn) [700,505] | 4 | 32
7 | – | – | – | CCOC(=O)c1cnc(Sc2nc(OCC)c3c(Br)c(CC)[nH]c3n2)s1 [700,291] | > 64 | > 64
8 | – | – | – | CCc1[nH]c2nc(Sc3cnc4c(N)nc(N)nc4c3)nc(OCCn3ccnc3)c2c1Cl.O=C(O)C(F)(F)F.O=C(O)C(F)(F)F [700,493] | > 64 | > 64
9 | – | – | – | CCOc1nc(Sc2ccc(N3CCC(O)CC3)nn2)nc2[nH]c(CC)c(Cl)c12 [700,327] | 32 (≈ 73.6 µM) | 64 (≈ 147 µM)
10 | 2 | 2 | – | CCc1[nH]c2nc(Sc3cnc4nccnc4c3)nc(N3CCC(CN4CCCC4=O)CC3)c2c1Cl [700,815] | – | –
11 | 32 | 8 | – | CCc1[nH]c2nc(Sc3cnc4c(NCC5OCCO5)nc(C)nc4c3)nc(N3CC[C@@H](N)C3)c2c1Cl [700,894] | – | –
12 | – | – | – | CCc1[nH]c2nc(Oc3cncnc3)nc(Oc3cncnc3)c2c1Cl.O=C(O)C(F)(F)F [700,551] | 2 | 4
13 | – | – | – | CCOc1nc(Sc2nc(C(=O)O)co2)nc2[nH]c(CC)c(Br)c12 [700,292] | > 64 | > 64
14 | – | – | – | CCc1nc2c(N(C)C)nc(Sc3cccc(C(=O)O)c3)nc2[nH]1.O=C(O)C(F)(F)F [700,220] | > 64 | 64
15 | – | – | – | CCc1[nH]c2nc(Sc3ccc4c(N)ncnc4c3)nc(Oc3cncc(OC)c3)c2c1Cl [700,687] | > 64 | > 64
16 | – | – | – | CCc1[nH]c2nc(Sc3cncnc3)nc(N3CC4CNC4C3)c2c1Cl (stereo not drawn) [700,785] | 16 (≈ 41.2 µM) | 64 (≈ 165 µM)
17 | – | – | – | CCc1[nH]c2nc(Sc3cnc4c(N)nc(N)nc4c3)nc(OCc3cccnc3)c2c1Cl.O=C(O)C(F)(F)F.O=C(O)C(F)(F)F [700,492] | 8 | > 64
18 | 8 | 16 | – | CCc1[nH]c2nc(Sc3cnc(N)nc3)nc(N3CC[C@@H](N)C3)c2c1Cl [700,788] | – | –
19 | – | – | – | CCc1[nH]c2nc(Cc3cccnc3)nc(N3CCC(N4CCOCC4)C3)c2c1Cl (stereo not drawn) [700,587] | 64 (≈ 150 µM) | > 64
20 | – | – | – | CCc1[nH]c2nc(Sc3cnc4nccnc4c3)nc(N3CC[C@H](O)[C@H]3CO)c2c1Cl [700,657] | 8 (≈ 17.5 µM) | 2 (≈ 4.37 µM)

Row | MIC, SA ([1]; S. aureus (SA), in µg/mL) | MIC Spn52 [2, 4] | MIC EC8 [3] [µg/mL] | SMILES | MIC, SA ([1]; S. aureus) [µg/mL] | MIC Spn52 ([2]; S. pneumoniae) [µg/mL]
21 | 2 | 8 | – | CCc1[nH]c2nc(Sc3ccc4ccc(C(=O)O)nc4c3)nc(N3CC(NC(=O)C4CC4)C3)c2c1Cl [700,807] | – | –
22 | – | – | – | CCc1[nH]c2nc(Sc3cnc4nccnc4c3)nc(N3CC(Oc4cccnc4)C3)c2c1Cl.O=C(O)C(F)(F)F.O=C(O)C(F)(F)F [700,667] | ≤ 0.5 | 1
23 | – | – | – | CCc1[nH]c2nc(Oc3cncnc3)nc(Oc3cncc(C#N)c3)c2c1Cl.O=C(O)C(F)(F)F [700,722] | 4 | 8
24 | – | – | – | CCc1[nH]c2nc(Sc3nc(C(=O)N4CCOCC4)cs3)nc(N3CCN(C(C)=O)CC3)c2c1Cl.O=C(O)C(F)(F)F [700,365] | > 64 | > 64
25 | 1 | 1 | – | CCc1[nH]c2nc(Sc3cnc4cccnc4c3)nc(N3CC4CC3CC4N)c2c1Cl (stereo not drawn) [700,857] | – | –
26 | – | – | – | CCc1[nH]c2nc(Sc3cnc4nccnc4c3)nc(N3CC(NS(=O)(=O)c4cnoc4C)C3)c2c1Cl [700,437] | ≤ 0.5 | 2 (≈ 3.58 µM)
27 | – | – | – | CCc1[nH]c2nc(Sc3cnc4sc(NC(C)=O)nc4c3)nc(N3CC(N)C3)c2c1Br [700,471] | 2 (≈ 3.85 µM) | 8 (≈ 15.4 µM)
28 | – | – | – | CCc1[nH]c2nc(Nc3ccc4c(N)nc(C)nc4c3)nc(N3CC(N)C3)c2c1Cl.O=C(O)C(F)(F)F.O=C(O)C(F)(F)F [700,531] | 8 | 4
29 | – | – | – | CCc1[nH]c2nc(Sc3cnc(C#N)c(F)c3)nc(N3CC(O)C3)c2c1Cl.O=C(O)C(F)(F)F.O=C(O)C(F)(F)F [700,422] | > 64 | > 64
30 | – | – | – | CCc1[nH]c2nc(Oc3cnc4ccoc4c3)nc(Oc3cncc(OC)c3)c2c1Cl.O=C(O)C(F)(F)F [700,649] | ≤ 0.5 | 2
31 | – | – | – | CCc1[nH]c2nc(Sc3cnc4nccnc4c3)nc(N3CC(NC(=N)N)C3)c2c1Cl.O=C(O)C(F)(F)F [700,503] | 16 | > 64
32 | – | – | – | CCc1[nH]c2nc(Oc3cccnc3)nc(N3CCN(C(C)=O)CC3)c2c1Cl.O=C(O)C(F)(F)F [700,459] | 16 | 32
33 | – | – | – | CCc1[nH]c2nc(Sc3ccc4nc[nH]c(=O)c4c3)nc(N3CC[C@@H](N)C3)c2c1Cl [700,710] | 1 (≈ 2.26 µM) | 8 (≈ 18.1 µM)
34 | – | – | – | CCc1[nH]c2nc(Sc3cnc4nccnc4c3)nc(N3CC[C@@H](O)C3)c2c1Cl [700,428] | ≤ 0.5 | 1 (≈ 2.34 µM)
35 | – | – | – | CCc1[nH]c2nc(Sc3cnc4nccnc4c3)nc(N3CCC4(CCCN4)C3)c2c1Cl (stereo not drawn) [700,547] | 4 (≈ 8.57 µM) | 4 (≈ 8.57 µM)
36 | – | – | – | CCc1[nH]c2nc(Sc3cc(-n4cccn4)nc(C)n3)nc(NCC3CCCO3)c2c1Cl (stereo not drawn) [700,373] | > 64 | > 64
37 | – | – | – | CCc1[nH]c2nc(Sc3nc(C(=O)O)cs3)nc(NCCCNC(=N)N)c2c1Cl.O=C(O)C(F)(F)F [700,343] | > 64 | > 64
38 | – | – | – | CCc1[nH]c2nc(Sc3ccc4nnc(C(=O)NCCCN5CCN(C)CC5)nc4c3)nc(N3CC[C@@H](N)C3)c2c1Cl [700,619] | 32 (≈ 52.4 µM) | 32 (≈ 52.4 µM)
39 | – | – | – | CCc1[nH]c2nc(Oc3cncc(OC)c3)nc(Oc3cncc(OC)c3)c2c1Cl.O=C(O)C(F)(F)F [700,578] | ≤ 0.5 | 1
40 | – | – | – | CCc1[nH]c2nc(Sc3ccc4c(N)nc(N)nc4c3)nc(N3CCC3)c2c1Cl.O=C(O)C(F)(F)F.O=C(O)C(F)(F)F [700,480] | 16 | > 64

Row | MIC, SA ([1]; S. aureus (SA), in µg/mL) | MIC Spn52 [2, 4] | MIC EC8 [3] [µg/mL] | SMILES | MIC, SA ([1]; S. aureus) [µg/mL] | MIC Spn52 ([2]; S. pneumoniae) [µg/mL]
41 | – | – | – | CCc1[nH]c2nc(Sc3ccc4nnc(C(=O)NC[C@H](C)O)nc4c3)nc(N3CC(N)C3)c2c1Cl [700,611] | 2 (≈ 3.89 µM) | 8 (≈ 15.6 µM)
42 | <=0.5 | 2 | – | CCc1[nH]c2nc(Sc3cnc4cccnc4c3)nc(N3CCC(c4cccnc4)C3)c2c1Cl (stereo not drawn) [700,871] | – | –
43 | – | – | – | CCc1[nH]c2nc(Sc3cnc4c(N)nc(C)nc4c3)nc(OCCn3ccnc3)c2c1Cl.O=C(O)C(F)(F)F [700,494] | > 64 | > 64
44 | – | – | – | CCc1[nH]c2nc(Sc3cnc4nccnc4c3)nc(N3CCC[C@H]3CO)c2c1Cl [700,426] | 1 (≈ 2.26 µM) | 1 (≈ 2.26 µM)
45 | 8 | 64 | – | CCc1[nH]c2nc(Sc3ccc4ccc(C(=O)O)nc4c3)nc(N3CC(NS(C)(=O)=O)C3)c2c1Cl [700,808] | – | –
46 | – | – | – | CCc1[nH]c2nc(Sc3nc(C(=O)O)cs3)nc(NCCCNS(C)(=O)=O)c2c1Cl [700,342] | > 64 | > 64
47 | – | – | – | CCc1[nH]c2nc(Sc3cnc4nccnc4c3)nc(NCCCn3ccnc3)c2c1Cl [700,455] | 2 (≈ 4.29 µM) | 2 (≈ 4.29 µM)
48 | – | – | – | CCc1[nH]c2nc(Nc3cnc4c(c3)nnn4C(C)C)nc(N3CC(N)C3)c2c1Br.O=C(O)C(F)(F)F.O=C(O)C(F)(F)F [700,484] | 4 | 8
49 | – | – | – | CCc1[nH]c2nc(Sc3nc(C(=O)O)cs3)nc(N3CCCC(CO)C3)c2c1Cl.O=C(O)C(F)(F)F (stereo not drawn) [700,408] | > 64 | > 64
50 | – | – | – | CCc1[nH]c2nc(Sc3nc(C(=O)O)cs3)nc(N3CC(Cc4cncnc4)C3)c2c1Cl.O=C(O)C(F)(F)F [700,318] | > 64 | > 64
51 | – | – | – | CCc1[nH]c2nc(Oc3cccnc3)nc(Oc3cccnc3)c2c1Cl.O=C(O)C(F)(F)F [700,410] | 1 | 4
52 | – | – | – | CCc1[nH]c2nc(Sc3cnc4nccnc4c3)nc(N3CC4CNC4C3)c2c1Cl.O=C(O)C(F)(F)F (stereo not drawn) [700,548, 7-(4-(3,6-diazabicyclo[3.2.0]heptan-3-yl)-5-chloro-6-ethyl-7H-pyrrolo[2,3-d]pyrimidin-2-ylthio)pyrido[3,2-b]pyrazine] | ≤ 0.5 | 2
53 | – | – | – | CCc1[nH]c2nc(Sc3nc(-c4nnn[nH]4)cs3)nc(N3CC(O)C3)c2c1Cl.Cl.Cl.Cl.Cl [700,355] | > 64 | > 64
54 | – | – | – | CCc1[nH]c2nc(Sc3ccc4nc(C)cc(C(=O)O)c4c3)nc(N3CC[C@@H](N)C3)c2c1Cl [700,708, (R)-6-(4-(3-aminopyrrolidin-1-yl)-5-chloro-6-ethyl-7H-pyrrolo[2,3-d]pyrimidin-2-ylthio)-2-methylquinoline-4-carboxylic acid] | 32 (≈ 66.3 µM) | > 64
55 | – | – | – | CCc1[nH]c2nc(Sc3cccc(CC(=O)O)c3)nc(Cl)c2c1Br [700,307] | 4 (≈ 9.37 µM) | 64 (≈ 150 µM)
56 | – | – | – | CCOc1nc(Cc2cccnc2)nc2[nH]c(CC)c(Cl)c12 [700,474] | 8 (≈ 25.3 µM) | 8 (≈ 25.3 µM)
57 | <=0.5 | <=0.5 | – | CCc1[nH]c2nc(Oc3cncnc3)nc(Oc3cncc(C#N)c3)c2c1Br [700,878] | – | –
58 | – | – | – | CCc1[nH]c2nc(Sc3cnc4nccnc4c3)nc(N3CC(CNC(=O)C4CCC(O)CC4)C3)c2c1Cl (stereo not drawn) [700,521] | 1 (≈ 1.81 µM) | 2 (≈ 3.62 µM)

Row | SMILES | MIC, SA ([1]; S. aureus (SA), in µg/mL) | MIC Spn52 [2, 4] | MIC EC8 [3] [µg/mL] | MIC, SA ([1]; S. aureus) [µg/mL] | MIC Spn52 ([2]; S. pneumoniae) [µg/mL]
59 | CCc1[nH]c2nc(Oc3cncc(C#N)c3)nc(Oc3cccc(C#N)c3)c2c1Br.O=C(O)C(F)(F)F [700,793] | <=0.5 | <=0.5 | – | – | –
